Measurements published in publication PMC5567253 (Scientific Reports, 2017).
Read-outs that look alike come from different tables or passages of the source.

Legend:
MGC803 = system: MGC803; parameters: method as in PMID 24098916; conditions: cited from earlier work
A549 = system: A549; parameters: method as in PMID 24098916; conditions: cited from earlier work
[1] = In vivo pharmacokinetics in rat plasma (UPLC-MS/MS, NCA); parameters: species or system Sprague-Dawley (SD) rats; conditions: intraperitoneal; for Cmax / MRT last / Tmax / half-life / AUC(0-t): male, Sprague-Dawley, plasma, ip; for MRT last: read-out: MRT0-t
Procedure: Male Sprague-Dawley (SD) rats (250 ± 50 g body weight) were purchased from Institute of Laboratory Animal Sciences, Peking Union Medical College (Beijing, China). Rats were housed in a light-controlled room at 25 ± 2 °C and 55 ± 5% relative humidity, at the Animal Center of Tianjin Medical University Cancer Institute and Hospital (Tianjin, China). Animals received a standard diet and water ad libitum. […] At 0, 10, 20, 30, 40 min, 1, 2, 3, 4, 6, 8, 10, 12, and 24 h post injection, blood samples were collected into heparinized glass tubes by direct venipuncture. Plasma was prepared from the blood by centrifugation at 13,000 rpm for 10 min at 4 °C and stored at −80 °C until further analysis.
An ACQUITY™ ultra-performance liquid chromatography system connected to a Xevo triple quadrupole mass spectrometry system (Waters, MA, USA) equipped with an electrospray ionization (ESI) source was used in this study. Aliquots (50 μl) of plasma was vortex-mixed with methanol (400 μl) containing diazepam (internal standard, 200 ng/ml concentration) for 2 min and then centrifuged at 13,000 rpm at 4 °C for 10 min. Then, 400 μl of supernatant was transferred to a clean centrifuge tube and dried with an N2 gas stream. Samples were reconstituted with 100 μl methanol/H2O (50/50, v/v). The injection volume of the assay was 5 μl. The mobile phase (MP) was composed of MPA (acetonitrile) and MPB (5 mM ammonium formate with 0.1% formic acid in water), and the flow rate was maintained at 0.3 ml/min. […] A switching valve directed the flow eluting between 1.0–2.5 min into a mass spectrometer, and the remainder to a waste container. BHX and diazepam were ionized with ESI in the positive mode and fragmented with collision gas for analysis using multiple reaction monitoring (MRM). The ESI source settings for the analysis were as follows: 350 °C gas temperature; 650 L/h desolvation; 50 L/h cone; 2.5 kV capillary voltage. […] The data acquisition and processing were done using MassLynx Mass Spectrometry software, version 4.1 (Waters, MA, USA). The dwell time was 400 ms for all ion transitions monitored.

MDA-MB-231 cells [2] = assay: cells; conditions: Homo sapiens, read-out: IC50 of suppression of cell viability
Procedure: After incubation, MTT solution (5 mg/ml, 20 μl per well) was added and incubated for 4 h. The culture media were then replaced with dimethyl sulfoxide (DMSO, 150 μl). […] The results are expressed as mean percentage of viable cells relative to untreated cells.

[3] = system: vimentin protein in MDA-MB-231 cells; assay: Western blotting of vimentin; assay type: cell-based, human; conditions: western blot
Procedure: (§1) Total cell lysates were obtained by lysing the cells in SDS lysis buffer containing a protease inhibitor (PMSF), and protein concentrations were determined using a BCA protein assay kit. The proteins were separated by SDS-PAGE and transferred to PVDF membranes. The membranes were incubated with primary antibodies against Snail, Vimentin, β-catenin, and E-cadherin (1:1000 dilution) overnight at 4 °C, rinsed with TBST, and incubated with IRDye-conjugated anti-rabbit or anti-mouse IgG secondary antibodies (1:1000, LI-COR Biosciences). A β-actin-specific monoclonal antibody (1:1000 dilution) was used as a loading control. Bands were visualized with an Odyssey LI-COR infrared imaging system (LI-COR, Lincoln, NE).

[4] = system: MDA-MB-231 xenografted tumours; assay: Mouse xenograft model, anti-tumour effect in vivo; parameters: species or system BALB/c nude mice
Procedure: Female BALB/c nude mice (18 ± 2 g) were purchased from Institute of Laboratory Animal Sciences, Peking Union Medical College (Beijing, China). […] The tumour length and width were measured using callipers and the tumour volume was calculated twice weekly. The body weight of mice was determined at least twice weekly during the study period.

[5] = system: vimentin mRNA in MDA-MB-231 cells; assay: PCR analysis of vimentin mRNA; assay type: cell-based, human; conditions: 24 h
Procedure: (§2) Total RNA from MDA-MB-231 cells was isolated using TRIzol (Life Technologies, USA). RNA samples were quantified using a NanoDrop 3300 spectrophotometer (Thermo Scientific, NanoDrop Products, Wilmington, DE, USA). Synthesis of cDNA was performed using a RevertAid First Strand cDNA Synthesis kit per manufacturer’s protocols (Thermo Scientific, USA). The reaction mixtures were heated at 95 °C for 10 min, followed by 30 cycles at 94 °C for 30 s, 58 °C for 30 s, 72 °C for 20 s, and a final extension at 72 °C for 5 min. Subsequently, PCR products were electrophoresed in a 1.5% agarose gel and scanned using a gel/fluorescence image analysis system. GAPDH was selected as a loading control to standardize the amount of cDNA from each sample.

[6] = system: Snail expression in MDA-MB-231 cells; assay: PCR analysis of Snail expression; assay type: cell-based, human; conditions: 24 h
Procedure: as §2

HT29 = system: HT29; parameters: method as in PMID 24098916; conditions: cited from earlier work
[7] = system: E-cadherin protein in MDA-MB-231 cells; assay: Western blotting of E-cadherin; assay type: cell-based, human; conditions: western blot
Procedure: as §1

[8] = system: Snail protein in MDA-MB-231 cells; assay: Western blotting of Snail; assay type: cell-based, human; conditions: western blot
Procedure: as §1

MDA-MB-231 cells [9] = assay: Scratch-wound (wound healing) migration assay; assay type: cell-based; conditions: Homo sapiens, 20 h
Procedure: (§3) Cell invasion and migration were measured using Transwell and wound healing assays, respectively. For Transwell assays, 2 × 10^4 cells were suspended in serum-free media and seeded in the top chamber of Matrigel-coated invasion inserts (Corning life science, Corning, NY). BHX was then added to the top chambers. DMEM containing 10% FBS was added to the lower chamber as a chemoattractant. After 24 h incubation, the non-invading cells on the upper surface of the membrane were wiped away, and the invading cells on the lower surface of the membrane were fixed using 95% ethanol and stained with 0.1% crystal violet. Images were captured at ×200 magnification using an inverted phase contrast microscope (BX61, Olympus, Japan). In parallel, cells were treated identically in 24-well plate. These cells were harvested, stained with 0.1% crystal violet, and counted. The number of cells that had invaded was normalized for effects on cell viability. For wound healing assays, cells were seeded at 2 × 10^5 cells/well in 24-well culture plates and allowed to reach confluence. […] Images of the scratches were recorded at ×40 magnification using a phase contrast microscope (EVOS, AMG, USA) at 0 and 20 h. The areas between leading edges were measured using Image J software, after which the rates of wound healing were calculated.

MDA-MB-231 cells [10] = assay: Transwell invasion assay; assay type: cell-based, human; conditions: 20 μM, 24 h, normalized for cell viability
Procedure: as §3

[11] = system: β-catenin mRNA in MDA-MB-231 cells; assay: PCR analysis of β-catenin mRNA; assay type: cell-based, human; conditions: 24 h
Procedure: as §2

MDA-MB-231 cells [12] = assay: Detection of apoptosis (annexin V/PI flow cytometry); assay type: cell-based, human; conditions: 24 h
Procedure: Flow cytometry was performed using PI and FITC-labelled annexin V (BD Pharmingen, CA, USA) staining according to the manufacturer’s protocol. […] After incubation at room temperature in the dark for 15 min, 400 μl of binding buffer (1×) was added. The samples were analysed within 1 h by flow cytometry (FACSCanto II, BD, San Jose, CA).

[13] = system: β-catenin protein in MDA-MB-231 cells; assay: Western blotting of β-catenin; assay type: cell-based, human
Procedure: as §1

[14] = system: E-cadherin mRNA in MDA-MB-231 cells; assay: PCR analysis of E-cadherin mRNA; assay type: cell-based, human; conditions: 24 h
Procedure: as §2

MDA-MB-231 cells [15] = assay: Morphology of MDA-MB-231 cells after BHX; assay type: cell-based, human; conditions: 24 h incubation, more noticeable at high concentrations
[16] = system: intracellular ROS in MDA-MB-231 cells; assay: Measurement of intracellular ROS (H2DCFDA); assay type: cell-based, human; conditions: 24 h, maximum potency at 20 μM
Procedure: The levels of intracellular ROS were monitored using dichlorofluorescein diacetate (H2DCFDA) as previously reported. […] The culture media were replaced with 1 ml of H2DCFDA/RPMI DMEM media and incubated at 37 °C for 30 min, with a final H2DCFDA concentration of 10 μM. The levels of ROS were then detected using flow cytometry (FACSCanto II, BD, San Jose, CA).

MDA-MB-231 cells [17] = assay: Cell cycle analysis by flow cytometry; assay type: cell-based, human; conditions: 24 h, vehicle 31.52 ± 2.67%
Procedure: Cell cycle analysis was carried out as previously described. […] They were washed thrice with ice-cold phosphate-buffered saline (PBS) and fixed with 75% ethanol at −20 °C overnight. The cells were then washed, incubated with 5 μl of RNase (0.25 mg/ml) at 37 °C for 30 min, pelleted, resuspended in propidium iodide (PI, 50 μg/ml), and incubated in the dark at room temperature for 15 min. Cell cycle analysis was analysed using a flow cytometer (FACSCanto II, BD, San Jose, CA).

MDA-MB-231 cells [18] = assay: cells; conditions: Homo sapiens, MDA-MB-231, 48 h, read-out: approximate IC50 of colony forming ability
Procedure: The culture media was then aspirated and fresh cell culture media was added to allow colony formation. The culture media was changed every third day. The colonies were fixed with ice-cold methanol for 5 min and stained with 1.0% crystal violet for 30 min. Colony numbers were counted and representative photos were taken.

O=C(NCc1ccc(O)cc1)C1C(c2ccccc2)C(c2ccccc2)=NN1c1ccccc1 (centres unmarked) [BHX]
cytotoxic effects (MGC803): exhibits cytotoxic effects | cytotoxic effects (A549): exhibits cytotoxic effects | CL ([1]; 50 μg/kg): 0.467 ± 0.1 mL/min/kg | Vd ([1]; 50 μg/kg): 0.192 ± 0.047 L/kg | t1/2 ([1]; 50 μg/kg): 4.82 ± 0.93 h | CL ([1]; 100 μg/kg): 0.717 ± 0.12 mL/min/kg | Vd ([1]; 100 μg/kg): 0.253 ± 0.062 L/kg | Cmax ([1]; 50 ug/kg): 325 ± 55.1 ng/mL | MRT last ([1]; 50 ug/kg, 50 μg/kg): 6.8 ± 1.25 h | Tmax ([1]; 50 ug/kg, 50 μg/kg, read-out: Tmax): 5.37 ± 1.16 h | half-life ([1]; 50 ug/kg, 50 μg/kg, read-out: elimination half-life in plasma (converted)): 4.82 ± 0.93 h | AUC(0-t) ([1]; 50 ug/kg, first AUC0-t line): 1770 ± 325 ng·h/mL | AUC(0-t) ([1]; 50 ug/kg, second AUC0-t line): 1820 ± 287 ng·h/mL | Cmax ([1]; 100 ug/kg): 405 ± 87.5 ng/mL | MRT last ([1]; 100 ug/kg, 100 μg/kg): 6.36 ± 1.32 h | Tmax ([1]; 100 ug/kg, 100 μg/kg, read-out: Tmax): 5.62 ± 1.38 h | half-life ([1]; 100 ug/kg, 100 μg/kg, read-out: t1/2 (converted)): 4.11 ± 0.81 h | AUC(0-t) ([1]; 100 ug/kg, first AUC0-t line): 2300 ± 412 ng·h/mL | AUC(0-t) ([1]; 100 ug/kg, second AUC0-t line): 2350 ± 303 ng·h/mL | Tmax ([1]; Fig. 7c, read-out: time to peak plasma level post administration): ~6 h | IC50 (MDA-MB-231 cells [2]; MDA-MB-231, 24 h): 28.1 µM | IC50 (MDA-MB-231 cells [2]; MDA-MB-231, 72 h): 13.8 µM | vimentin protein expression [3]: down-regulating Snail and vimentin expression in a dose-dependent manner | average tumour volume ([4]; 100 mg/kg for 21 days, vehicle 1179 ± 128 mm^3): 754 ± 96 mm^3 | tumour size compared to control group ([4]; 100, 200 mg/kg, daily intraperitoneal, 21 days, p < 0.01): significant decrease in tumour size | body weight of treated mice ([4]; 21 days treatment, p > 0.05): no significant loss of body weight | bioluminescent intensity of tumours ([4]; 21 days, dose not stated, control 8.90 ± 0.74 × 10^7): 6.13 ± 0.52 × 10^7 p/sec/cm^2/sr | reduction of vimentin mRNA levels ([5]; 5 μM): 4.89% | reduction of vimentin mRNA levels ([5]; 10 μM): 26.27% | reduction of vimentin mRNA levels ([5]; 20 μM): 40.08% | reduction of Snail expression ([6]; 5 μM): 7.03% | reduction of Snail expression ([6]; 10 μM): 15.88% | reduction of Snail expression ([6]; 20 μM): 27.14% | cytotoxic effects (HT29): exhibits cytotoxic effects | E-cadherin protein level [7]: up-regulating the protein and mRNA levels of E-cadherin | Snail protein expression [8]: down-regulating Snail and vimentin expression in a dose-dependent manner | inhibition at 5 µM (MDA-MB-231 cells [9]; 5 μM): 34.4 ± 1.06% | inhibition at 10 µM (MDA-MB-231 cells [9]; 10 μM): 71 ± 1.65% | inhibition at 20 µM (MDA-MB-231 cells [9]; 20 μM): 90.32 ± 0.68% | reduction of invasive potential (MDA-MB-231 cells [10]): 48.38% | decrease of β-catenin mRNA levels ([11]; 5 μM): 4.61% | decrease of β-catenin mRNA levels ([11]; 10 μM): 25.73% | decrease of β-catenin mRNA levels ([11]; 20 μM): 33.19% | early apoptotic cells vs vehicle (MDA-MB-231 cells [12]): increased the percentage of early apoptotic cells | β-catenin expression by western blotting [13]: suppressed β-catenin expression in a concentration-dependent manner | increase of E-cadherin mRNA levels compared to control ([14]; 5 μM): 1.39 fold | increase of E-cadherin mRNA levels compared to control ([14]; 10 μM): 1.65 fold | increase of E-cadherin mRNA levels compared to control ([14]; 20 μM): 2.06 fold | morphological changes (MDA-MB-231 cells [15]): cell shrinkage and fragmentation | ROS generation [16]: significantly increased in a dose-dependent manner | percentage of cells in the G0/G1 phase (MDA-MB-231 cells [17]; 10 μM): 54.49 ± 1.93% | percentage of cells in the G0/G1 phase (MDA-MB-231 cells [17]; 20 μM): 61.50 ± 2.85% | IC50 (MDA-MB-231 cells [18]): ~20 µM
